Results: US20250092065A1, “2-(INDAZOL-5-YL)-6-(PIPERIDIN-4-YL)-1,7-NAPHTHYRIDINE DERIVATIVES AND RELATED COMPOUNDS AS MODULATORS FOR SPLICING NUCLEIC ACIDS AND FOR THE TREATMENT OF PROLIFERATIVE DISEASES” (REMIX THERAPEUTICS INC., priority 2022, published 2025)
Structures can show the parent of a compound that is named as a salt. Where two headings read alike, the source gives them in different places.

Legend:
HTT mRNA = assay: RT-qPCR splicing assay, HTT mRNA canonical (CJ) and alternative (AJ) junction; format: cell-based, human; details: Homo sapiens; for AC50: HTT alternative junction mRNA, read-out: HTT AJ (increase in AJ mRNA, AC50)
In short: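 Canonical and alternative-exon junction isoforms were quantified by RT-qPCR in cell lysates, with ΔCt against a housekeeper (GAPDH/GUSB/PPIA), then ΔΔCt vs DMSO, converted to 2^(−ΔΔCt) and percent response. K562 or A673 cells were exposed for 24 h to 11 concentrations (3-fold, top final 10 uM).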

MYB = assay: HiBiT protein abundance assay, MYB (K562 HiBiT knock-in); format: cell-based, human; details: HiBiT knock-in K562 cells, 24 hours, top dose 10 μM
In short: (§1)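 Luminescence readout: Nano-Glo HiBiT lytic detection after 24 h compound exposure of K562 HiBiT knock-in cells, 10000 cells/well. Dosing 10-pt, 3-fold, top 10 μM final. % response vs untreated parental K562 and DMSO controls; 4PL fit, IC50 = concentration giving 50% protein abundance.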

HTT = assay: HiBiT protein abundance assay, HTT (K562 HiBiT knock-in); format: cell-based, human; details: HiBiT knock-in K562 cells, 24 hours, top dose 10 μM
In short: as §1

Target C = assay: HiBiT protein abundance assay, Target C (K562 HiBiT knock-in); format: cell-based, human; details: HiBiT knock-in K562 cells, 24 hours, top dose 10 μM
In short: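 K562 HiBiT knock-in cells (10000/well) were treated 24 h at 37° C with a 10-point 3-fold dilution series (top 10 μM final, ≤0.25% DMSO). HiBiT luminescence was read after lytic LgBiT detection. Percent response used unmodified K562 and DMSO-treated knock-in controls, and IC50 came from a four-parameter fit at 50% of untreated.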

K562 cells = assay: Cell Titer Glo 2.0 cell viability (toxicity) assay, K562; details: 500 cells/well, 72 hours
Protocol: Compounds described herein were screened for toxicity in K562 (human chronic myelogenous leukemia) and SH-SY5Y (human neuroblastoma) cells using a Cell Titer Glo 2.0 assay.
Cells were plated at 500 cells/well (K562 cells) in 45 μL of IMDM supplemented with 10% FBS in a 384-well opaque plate. Wells containing only medium were used as a blank control. Test compounds (e.g., compounds of Formula (I) or (II)) were first serially diluted in DMSO then diluted 1:100 with EIDM+10% FBS. The final concentration of DMSO was 0.1% in each well. The cells were incubated for 72 hours at 37° C. and 5% CO2 before assaying with Cell Titer Glo 2.0 reagent.

[1] = HTT canonical junction mRNA, RT-qPCR, read-out: HTT CJ (decrease in CJ mRNA levels, IC50)
[2] = canonical junction qPCR panel, Table 4, read-out: HTT IC50 (decrease in CJ mRNA levels)

Row | SMILES | IC50 (HTT mRNA; [1]) [nM] | IC50 (HTT mRNA; [2]) [nM] | IC50 (MYB) [nM] | IC50 (HTT) [nM] | IC50 (Target C) [nM] | AC50 (HTT mRNA; RT-qPCR) [nM] | Effect of Exemplary Compounds on Cell Viability, K562 (K562 cells)
1 | Cc1nc2c(C)c(O)c(-c3ccc4nc(N5CC[C@@H](NC(C)(C)C)C5)ncc4n3)cc2o1 [Compound 436] | < 100 | < 100 | < 100 | < 100 | < 100 | < 100 | A (A represents <100 nM)
2 | Cc1nc2c(C)c(O)c(-c3ccc4nc(N5CC[C@H](NC(C)(C)C)C5)ncc4n3)cc2o1 [Compound 437] | < 100 | < 100 | 100 to 1000 | < 100 | < 100 | < 100 | B (B represents 100-1000 nM)
3 | Cc1nc2c(C)c(O)c(-c3ccc4cc(N5CC[C@@H](NC6CC6)C5)ncc4n3)cc2o1 [Compound 440, 6-{6-[(3R)-3-(cyclopropylamino)pyrrolidin-1-yl]-1,7-naphthyridin-2-yl}-2,4-dimethyl-1,3-benzoxazol-5-ol] | < 100 | < 100 | 100 to 1000 | < 100 | < 100 | 100 to 1000 | B (B represents 100-1000 nM)
4 | Cn1cc2cc(-c3ccc4nc(C5CCNC6(CC6)C5)ncc4n3)c(O)cc2n1 (centres unmarked) [Compound 448, 5-(2-{4-azaspiro[2.5]octan-7-yl}pyrido[3,2-d]pyrimidin-6-yl)-2-methylindazol-6-ol] | 100 to 1000 | 100 to 1000 | 100 to 1000 | 100 to 1000 | 100 to 1000 | 1000 to 10000 | C (C represents 1000-9999 nM)
5 | Cn1cc2cc(-c3ccc4cc(N5CCC(NC(C)(C)C)C5)ncc4n3)c(O)cc2n1 (centres unmarked) [Compound 449, 5-{6-[3-(tert-butylamino)pyrrolidin-1-yl]-1,7-naphthyridin-2-yl}-2-methylindazol-6-ol] | 1000 to 10000 | 1000 to 10000 | 100 to 1000 | 100 to 1000 | 100 to 1000 | 1000 to 10000 | B (B represents 100-1000 nM)
6 | Cc1c(O)c(-c2cc(Cl)c3cc(N4CCNCC4)cc(C)c3n2)cc2cn(C)nc12 [Compound 482, 5-[4-chloro-8-methyl-6-(piperazin-1-yl)577yrrolidi-2-yl]-2,7-dimethylindazol-6-ol hydrochloride] | < 100 | < 100 | < 100 | 100 to 1000 | 100 to 1000 | 100 to 1000 | A (A represents <100 nM)

Second part, led by results:

Row | IC50 (HTT mRNA; [1]) [nM] | IC50 (HTT mRNA; [2]) [nM] | IC50 (MYB) [nM] | IC50 (HTT) [nM] | IC50 (Target C) [nM] | SMILES | AC50 (HTT mRNA; RT-qPCR) [nM] | Effect of Exemplary Compounds on Cell Viability, K562 (K562 cells)
7 | < 100 | < 100 | 100 to 1000 | < 100 | < 100 | Cc1nc2c(C)c(O)c(-c3ccc4nc(N5CC[C@H](NC6CC6)C5)ncc4n3)cc2o1 [Compound 433, 6-{2-[(3S)-3-(cyclopropylamino)pyrrolidin-1-yl]pyrido[3,2-d]pyrimidin-6-yl}-2,4-dimethyl-1,3-benzoxazol-5-ol] | < 100 | B (B represents 100-1000 nM)
8 | 100 to 1000 | 100 to 1000 | 100 to 1000 | 100 to 1000 | 100 to 1000 | Cc1nc2cc(O)c(-c3ccc4nc(N5CC[C@H](NC6CC6)C5)ncc4n3)cc2o1 [Compound 435, 6-{2-[(3S)-3-(cyclopropylamino)pyrrolidin-1-yl]pyrido[3,2-d]pyrimidin-6-yl}-2-methyl-1,3-benzoxazol-5-ol] | 100 to 1000 | B (B represents 100-1000 nM)
9 | < 100 | < 100 | 100 to 1000 | < 100 | < 100 | Cc1c(O)c(-c2ccc3nc(N4CC[C@@H](NC5CC5)C4)ncc3n2)cc2cn(C)nc12 [Compound 438, 5-{2-[(3R)-3-(cyclopropylamino)pyrrolidin-1-yl]pyrido[3,2-d]pyrimidin-6-yl}-2,7-dimethylindazol-6-ol] | < 100 | B (B represents 100-1000 nM)
10 | < 100 | < 100 | 100 to 1000 | < 100 | < 100 | Cc1c(O)c(-c2ccc3nc(N4CC[C@H](NC5CC5)C4)ncc3n2)cc2cn(C)nc12 [Compound 439, 5-{2-[(3S)-3-(cyclopropylamino)pyrrolidin-1-yl]pyrido[3,2-d]pyrimidin-6-yl}-2,7-dimethylindazol-6-ol] | < 100 | B (B represents 100-1000 nM)
11 | < 100 | < 100 | 1000 to 10000 | 100 to 1000 | 100 to 1000 | Cc1nc2c(C)c(O)c(-c3ccc4cc(N5CC[C@H](NC6CC6)C5)ncc4n3)cc2o1 [Compound 441, 6-{6-[(3S)-3-(cyclopropylamino)pyrrolidin-1-yl]-1,7-naphthyridin-2-yl}-2,4-dimethyl-1,3-benzoxazol-5-ol] | 100 to 1000 | B (B represents 100-1000 nM)
12 | 1000 to 10000 | 1000 to 10000 | 1000 to 10000 | 1000 to 10000 | 1000 to 10000 | Cc1nc2cc(O)c(-c3ccc4cc(N5CC[C@H](NC(C)(C)C)C5)ncc4n3)cc2o1 [Compound 450] | 1000 to 10000 | C (C represents 1000-9999 nM)
13 | > 10000 | > 10000 | 100 to 1000 | 1000 to 10000 | 1000 to 10000 | Cc1cc2nc(-c3cc4cn(C)nc4c(C)c3O)cc(Cl)c2cc1N1CCNCC1 [Compound 484, 5-[4-chloro-7-methyl-6-(piperazin-1-yl)586yrrolidi-2-yl]-2,7-dimethylindazol-6-ol] | > 10000 | B (B represents 100-1000 nM)
14 | 1000 to 10000 | 1000 to 10000 | 100 to 1000 | 1000 to 10000 | 1000 to 10000 | CNC1CCN(c2cc3c(Cl)cc(-c4cc5cn(C)nc5c(C)c4O)nc3cc2C)C1 (centres unmarked) [Compound 486, 5-{4-chloro-7-methyl-6-[3-(methylamino)pyrrolidin-1-yl]quinolin-2-yl}-2,7-dimethylindazol-6-ol] | 1000 to 10000 | B (B represents 100-1000 nM)
